According to patent publication US20040138301A1, “Chemical uncouplers for the treatment of obesity” (priority 2002, published 2004):
Read-outs that look alike come from different tables or passages of the source.

What was measured:
FSK-4 cells = assay: Assay (IV): Glucose utilisation in FSK-4 cells; assay type: cell-based; settings: FSK-4 cells; for EC50: glucose utilisation, 24 hours incubation, read-out: FSK4 EC50; for Emax: maximal efficacy relative to FCCP, read-out: FSK4 Emax (% of FCCP)
Experimental: Assay (IV): Glucose Utilisation in FSK-4 Cells
The assay measures indirectly the activity of the respiratory chain in FSK-4 cells by using D-(6-^3H(N))-glucose. The ^3H-proton will first be released in the TCA cyclus and transported to the respiratory chain where it will be incorporated into water. The water is thereafter separated from the D-(6-^3H(N))-glucose by evaporation. Finally, the radioactivity in the water is determined using a Topcounter.
FSK-4 cells obtained from ATCC (Maryland, USA), are cultured in growth medium (McCoy's medium with the following addition 100 units/ml penicillin and streptomycin and 10% FCS (fetal calf serum)) at 37° C. and 5% CO2. All media are obtained by Gibco (Life Technologies, Maryland, USA) where not otherwise mentioned.
At day zero the cells are harvested using trypsin-EDTA and washed in assay medium (MEM medium with the following addition 1× non-essential amino acids (M7145, 2 mM glutamin, 100 units/ml pencillin and streptomycin, 0.0075% sodium bicarbonate, 1 mM sodium pyrovate and 2% horse serum) using centrifugation. The cells are plated into single StripPlates wells (Corning B.V.Life Sciences, The Netherlands) that are placed into 24-well plates (Corning B.V.Life Sciences, The Netherlands) with a concentration of 1,5×10^4 cells/100 μl assay medium/well. The cells are then incubated at 37° C. and 5% CO2 overnight.
(§1) The next day the compounds to be tested are diluted to different concentrations in DMSO (Sigma, Missouri, USA) to 100 times final concentration. They are then diluted to a final concentration in assay medium containing 10 μCi/ml D-(6-^3H(N))-glucose (PerkinElmer Life Sciences Inc., Boston, USA). The medium is removed from the cells and 200 μl of the compound dilutions are added in duplicates. The cells are then incubated for another 24 hours at 37° C. and 5% CO2. Finally the cells are lysed by adding 50 μl 10% TCA (tri-chloroacetatic acid). 300 μl of sterile water is then added to the 24-wells that surrounds the StripPlate wells. The plate is sealed with Top-seal-tape (Packard, PerkinElmer Life Sciences Inc., Boston, USA) and the plate is incubated in a heating cupboard at 50° C. to equilibrium the radioactive water formed in the respiratory chain into the water in the 24-well plate by evaporate. The plates incubate for 8 hours where the heating cupboard is turned off. The top seal is removed when the samples have reached room temperature. One ml scintillation liquid (Packard Microscient, PerkinElmer Life Sciences Inc., Boston, USA) is added to all the samples and the radioactivity is determined using a Topcounter (Packard, PerkinElmer Life Sciences Inc., Boston, USA). Non-specific activity is determined by evaporating 200 μl of the dilution medium containing the D-(6-^3H(N))-glucose into 300 μl sterile water, and total radioactivity is determined by counting 5 μl assay medium with 10 μCi/ml D-(6-^3H(N))-glucose.
All calculations are done using GraphPad Prism 3.0 (GraphPad software, Inc.) From concentration-response curves the half maximal concentration (EC50) and maximal efficacy (Emax) are calculated using equation 1.
Y=Bottom+(Top−Bottom)/(1+10^((LogEc50-X)*slope))
(§2) X is the logarithm of the molar concentration of the test compound.
Y is the degree of stimulation caused by the compound measured as percentage of the basal stimulation.
The calculated EC50 value is then used to determine the concentrations used in a study where the Hill slope is calculated.
From the double logarithmic plot of the increase in glucose utilisation and the compound concentration the Hill slope is calculated accordingly to equation 2.
It is presumed, that the maximal increase in the glucose utilisation (as measured in the FSK-4 glucose utilisation assay) is limited by the capacity of the metabolism.

HEP-G2 cells = assay: cells; settings: for HEP-G2 Tox: human, 3 h
Experimental: Assay (I): Glucose utilisation in a human hepatocytes cell line (HEP-G2 cells)
The assay measures indirectly the activity of the respiratory chain in HEP-G2 cells by using D-(3-^3H(N))-glucose. The ^3H-proton will first be released during the metabolism of glucose where it will be incorporated into water. The water is thereafter separated from the D-(3-^3H(N))-glucose by evaporation. Finally, the radioactivity in the water is determined using a Topcounter.
HEP-G2 cells obtained from ATCC (Maryland, USA), are cultured in assay medium (MEM medium) with the following addition 1× non-essential amino acids (M7145, 2 mM glutamine, 100 units/ml penicillin and streptomycin, 0.0075% sodium bicarbonate, 1 mM sodium pyrovate and 0.5% BSA (Bovin Serum Albumin, Sigma Missouri, USA)) at 37° C. and 5% CO2. All media are obtained by Gibco (Life Technologies, Maryland, USA) where not otherwise mentioned.
At day zero the cells are harvested using trypsin-EDTA and washed in assay medium using centrifugation. […] The cells are then incubated at 37° C. and 5% CO2 overnight.
as §1, with “diluted” for “diluted to different concentrations”, “μCi/ml D-(3-^3H(N))-glucose” for “μCi/ml D-(6-^3H(N))-glucose”, “another 3” for “another 24”, “TCA (trichloroacetic” for “TCA (tri-chloroacetatic”, “the D-(3-^3H(N))-glucose” for “the D-(6-^3H(N))-glucose”, “μCi/ml D-(3-^3H(N))-glucose.” for “μCi/ml D-(6-^3H(N))-glucose.”
The cpm (counts per minute) representing the non-specific radioactivity in the D-(3-^3H(N))-glucose is subtracted from all incubated values. Then mean basal value (samples without any compound added) is subtracted from the values of all stimulated samples (samples added different concentrations of the different test compounds). All these calculations are done using GraphPad Prism 3.0 (GraphPad software, Inc.). The maximal stimulation caused by the test compounds is calculated in percentage of maximal stimulation caused by either DNP or FCCP.
When calculating the concentration-response curve the maximal glucose utilisation stimulated by FCCP or DNP (subtracted non-specific and basal values) is converted to 100% and all the other values are expressed in percentage of this value. Using these percentage values and the compound concentration a concentration-response curve is calculated using sigmoidal dose-response (variable slope) equation (all the calculations are done by GraphPad Prism 3.0 (GraphPad software, Inc.));
Y=Bottom+(Top−Bottom)/(1+10^((LogEC50-X)*slope))
as §2
Y is the degree of stimulation caused by the compound measured as a percentage of the maximal stimulation achieved by use of FCCP or DNP.
The results achieved with these concentrations are used to determine the slope in this area using the following equation: […]

[1] = Homo sapiens, HepG2, 3 h, read-out: HEP-G2 EC50, HEP-G2 cells, glucose utilisation, 3 hours incubation
[2] = Homo sapiens, HepG2, read-out: HEP-G2 Emax (% of FCCP), HEP-G2 cells, maximal stimulation relative to FCCP
[3] = Homo sapiens, HepG2, read-out: HEP-G2 Emax (μM), HEP-G2 cells, concentration at which Emax is achieved (CEmax)

SMILES | EC50 (FSK-4 cells) [µM] | EC50 (HEP-G2 cells; [1]) [µM] | EC50 (HEP-G2 cells; read-out: HEP-G2 EC50, HEP-G2 cells, glucose utilisation, 3 hours incubation) [µM] | Emax (FSK-4 cells) [%] | Emax (HEP-G2 cells; [2]) [%] | EC (Emax) (HEP-G2 cells; [3]) [µM] | HEP-G2 Tox (HEP-G2 cells) | EC50 (HEP-G2 cells; Homo sapiens, HepG2, 3 h, read-out: HEP-G2 EC50) [µM] | Emax (HEP-G2 cells; Homo sapiens, HepG2, read-out: HEP-G2 Emax (% of FCCP)) [%] | EC (Emax) (HEP-G2 cells; Homo sapiens, HepG2, read-out: HEP-G2 Emax (μM)) [µM]
Cc1c(Cl)cc(C(C)(C)C)c(O)c1C(=O)Nc1ccc([N+](=O)[O-])cc1Cl [Example 5, 3-Tert-Butyl-5-Chloro-N-(2-Chloro-4-Nitrophenyl)-2-Hydroxy-6-Methyl-Benzamide] | 0.1 | 0.06 |  | 100 | 95 | 0.3 |  |  |  | 
Cc1ccc(C(C)(C)C)c(O)c1C(=O)Nc1ccc([N+](=O)[O-])cc1Cl [Example 10] | 0.3 | 0.37 |  | 80 | 100 | 3 |  |  |  | 
CC(C)(C)c1cc(C[P+](c2ccccc2)(c2ccccc2)c2ccccc2)cc(C(C)(C)C)c1O [Example 11, (3,5-Di-Tert-Butyl-4-Hydroxybenzyl)Triphenylphosphonium Bromide] | 0.3 | 0.7 |  | 90 | 75 | 3 | Tox 0.03 mM |  |  | 
CC(C)(C)c1cc(C[P+](C2CCCCC2)(C2CCCCC2)C2CCCCC2)cc(C(C)(C)C)c1O [Example 12, (3,5-Di-Tert-Butyl-4-Hydroxybenzyl)Tricyclohexylphosphonium Bromide] | 0.3 | 1.2 |  | 85 | 70 | 10 | Tox 0.03 mM |  |  | 
CCCC[P+](CCCC)(CCCC)Cc1cc(C(C)(C)C)c(O)c(C(C)(C)C)c1.[Br-] [Example 13, (3,5-Di-Tert-Butyl-4-Hydroxybenzyl)Tributylphosphonium Bromide] | 1 | 2.9 |  | 85 | 70 | 10 | Tox 0.03 mM |  |  | 
CCCCCCCC[P+](CCCCCCCC)(CCCCCCCC)Cc1cc(C(C)(C)C)c(O)c(C(C)(C)C)c1.[Br-] [Example 14, (3,5-Di-Tert-Butyl-4-Hydroxybenzyl)Trioctylphosphonium Bromide] | 0.2 | 1.1 |  | 100 | 100 | 10 | Tox 0.01 mM |  |  | 
CCOC(=O)/C(C#N)=C/c1cc(C(C)(C)C)c(O)c(C(C)(C)C)c1 [Example 15, 2-Cyano-3-(3,5-Di-Tert-Butyl-4-Hydroxyphenyl)-Acrylic Acid Ethyl Ester] | 2 | 0.7 |  | 65 | 100 | 3 |  |  |  | 
CCOC(=O)C(=Cc1cc(C(C)(C)C)c(O)c(C(C)(C)C)c1)C(=O)OCC [Example 16, 2-(3,5-Di-Tert-Butyl-4-Hydroxy-Benzylidene)-Malonic Acid Diethyl Ester] | 30 | 11 |  | 45 | 100 | 100 |  |  |  | 
Cc1c(Cl)cc(C(C)(C)C)c(O)c1C(=O)Nc1ccc(C#N)c(C(F)(F)F)c1 [Example 43, 3-Tert-Butyl-5-Chloro-N-(4-Cyano-3-Trifluoromethyl-Phenyl)-2-Hydroxy-6-Methyl-Benzamide] | 0.3 |  |  | 80 |  |  |  | 0.85 | 95 | 3

More lines, main results first:

EC50 (FSK-4 cells) [µM] | EC50 (HEP-G2 cells; [1]) [µM] | EC50 (HEP-G2 cells; read-out: HEP-G2 EC50, HEP-G2 cells, glucose utilisation, 3 hours incubation) [µM] | SMILES | Emax (FSK-4 cells) [%] | Emax (HEP-G2 cells; [2]) [%] | EC (Emax) (HEP-G2 cells; [3]) [µM] | HEP-G2 Tox (HEP-G2 cells) | EC50 (HEP-G2 cells; Homo sapiens, HepG2, 3 h, read-out: HEP-G2 EC50) [µM] | Emax (HEP-G2 cells; Homo sapiens, HepG2, read-out: HEP-G2 Emax (% of FCCP)) [%] | EC (Emax) (HEP-G2 cells; Homo sapiens, HepG2, read-out: HEP-G2 Emax (μM)) [µM]
6 | 0.6 |  | CC(C)(C)c1cc(C=C2C(=O)c3ccccc3C2=O)cc(C(C)(C)C)c1O [Example 18, 2-(3,5-Di-Tert-Butyl-4-Hydroxy-Benzylidene)-Indan-1,3-Dione] | 100 | 80 | 3 |  |  |  | 
1.1 | 7 |  | N#CC(C#N)=Cc1c(-c2ccc(Cl)cc2)[nH]c2ccccc12 [Example 19, 2-[[2-(4-Chlorophenyl)-1H-Indol-3-Yl]Methylene]Malononitrile] | 55 | 100 | 100 |  |  |  | 
26 | 50 |  | Clc1ccc(-c2cc3ccccc3[nH]2)cc1 [Example 20, 2-(4-Chlorophenyl)-Indole] | 90 | 55 | 300 |  |  |  | 
1.1 | 3.3 |  | Cc1c(Cl)cc(C(C)(C)C)c(O)c1C(=O)Nc1ccc(Cl)c(C(F)(F)F)c1 [Example 42, 3-Tert-Butyl-5-Chloro-N-(4-Chloro-3-Trifluoromethyl-Phenyl)-2-Hydroxy-6-Methyl-Benzamide] | 75 | 89 | 10 |  |  |  | 
3.6 | 2 | 1.4 | O=C(Nc1ccc([N+](=O)[O-])cc1Cl)c1cccc(-c2ccccc2)c1O [Example 44, 2-Hydroxy-Biphenyl-3-Carboxylic Acid (2-Chloro-4-Nitro-Phenyl)-Amide] | 90 | 94 |  |  |  |  | 
